Measurements published in patent US20230346765A1, “METHODS OF TREATING XANTHINE OXIDASE-RELATED DISEASES WITH NIFLUMIC ACID AND DERIVATIVES THEREOF” (Baylor College of Medicine, priority 2020, published 2023).
“Also recorded” adds a separate entry of the source.

Legend:
uricase −/− mice [1] = assay: Serum uric acid in chronic hyperuricemia model, drug in drinking water; format: in vivo
Description: Serum uric acid (SUA) levels in uricase −/− mice were used to probe the effects of treatment with drinking water containing allopurinol, DHNB, and niflumic acid (NFA). Under the maintenance of allopurinol, adult uricase−/− mice show relatively low SUA (2-4 mg/dL). […] For the current experiments, the allopurinol water was stopped and normal water was supplied to uricase−/− mice for one week; and then uricase−/− mice were treated with DHNB (150 mg/L) or NFA (150 mg/L) in drinking water. Additionally, uricase−/− mice were given allopurinol (150 mg/L) as a positive control, while normal water was given for a negative control. All drug/waters were refreshed every week. Serum uric acid (SUA) levels of treated and control mice were determined 1-2 weeks, 4-6 weeks or 8-10 weeks after the treatment (see FIG. 10). Mouse blood (100˜200 μL) was taken via facial vein at the scheduled time point. The blood was allowed to clot for 1 hour at room temperature and then centrifuged at 2350 g for 4 minutes to obtain serum. The serum was kept on ice and assayed immediately by the tungsten phosphate method, as known to those of skill in the art.

uricase −/− mice [2] = assay: Serum uric acid in chronic hyperuricemia model, drug in solid chow diet; format: in vivo; conditions: for SUA: 250 mg/Kg food, 6-8 weeks; for SUA levels versus regular chow control: 250 mg/kg food, 6 to 8 weeks, p<0.001
Description: An analogous study was performed to investigate the effects on SUA in uricase −/− mice treated with solid chow diet formulated with NFA, DHNB, and allopurinol. NFA, DHNB or allopurinol was formulated into solid chow diet (250 mg/kg food, LabDiet® 5V5R, ½″ pellet; Irradiated) from the company (Test Diet, St. Louis, MO and Lab Supply, Inc). Allopurinol water was stopped for uricase−/− mice, while normal water was supplied during experiments. Uricase−/− mice (1-2 months age, male and female), were given special solid chow die including NFA, DHNB or allopurinol (250 mg/kg food). In separate mice, special solid chow diet containing allopurinol (250 mg/kg food) was given for a positive control and regular solid chow diet was given for a negative control. Blood samples were obtained and processed at 6 or 8 weeks after the treatment (see FIG. 11). Serum uric acid was determined using the tungsten phosphate method.

[3] = tested on: allantoxanamide-treated mice; assay: Hypouricemic effect in allantoxanamide induced hyperuricemic mice (Example 3); format: in vivo, C57BL/6 mice; conditions: 50 mg/kg oral gavage once; 1.5, 3 and 23 hours; p<0.05
Description: A hyperuricemia mouse model was used. Allantoxanamide, a potent uricase inhibitor, was used to induce hyperuricemia in mice in this study. Briefly, adult C57BL/6 mice (15-25 g. 6-8 weeks old) were injected intraperitoneally (i.p.) with allantoxanamide at 100 mg/kg or 200 mg/kg in 0.5% sodium carboxymethyl cellulose (CMC-Na) in a volume of 0.1 ml/10 g mouse body weight, to increase the serum uric acid level. The mice then received the test compound morniflumate at a concentration of 50 mg/kg in 1.0% polyethylene glycol 400 (PEG400 in a volume of 0.1 ml/10 g mouse body weight), via oral gavage. Positive control mice received allopurinol at the same concentration as test compound after i.p. injection of allantoxanamide. The negative control mice received PEG400 only after i.p, injection of allantoxanamide. Blood samples were collected through the facial vein at 1,5 hours, 3 hours, and 23 hours after the oral gavage. The blood was allowed to clot for 1 hour at room temperature and then centrifuged at 2350×g for 4 minutes to obtain serum. The serum was kept on ice and assayed immediately. Serum uric acid was determined using the phosphotungstate method, as known to those of skill in the art.

[4] = tested on: allantoxanamide-treated mice; assay: Serum uric acid in acute hyperuricemia mouse model, allantoxanamide-treated (Example 4); format: in vivo, C57BL/6 mice; conditions: 50 mg/kg oral gavage once
Description: Adult C57BL/6 mice (15-25 g, 6-8 weeks old) were injected intraperitoneally (i.p.) with allantoxanamide at 100 mg/kg in 0.5% sodium carboxymethyl cellulose (CMC-Na) in a volume of 0.1 ml/10 g mouse body weight, to increase the serum uric acid level. Then the mice received a test compound at a concentration of 50 mg/kg in 1.0% polyethylene glycol 400 (PEG-400 in a volume of 0.1 ml/10 g mouse body weight), via oral gavage. Positive control mice received allopurinol at the same concentration as the test compound after i.p. injection of allantoxanamide. The negative control mice received PEG400 only after i.p. injection of allantoxanamide. Blood samples were collected through facial vein at 3 hours and 23 hours after the oral gavage (one time treatment). The blood was allowed to clot for 1 hour at room temperature and then centrifuged at 2350×g for 4 minutes to obtain serum. The serum was kept on ice and assayed immediately. Serum uric acid was determined using the phosphotungstate method, as known to those of skill in the art.
Allopurinol was used as a positive control. Allantoxanamide is a potent uricase inhibitor. […] Animal numbers used in this experiments [Negative control (baseline)=11; allantoxanamide=10, allopurinol (positive control)=4; niflumic acid=6; NFA-impurity E=6; talniflumate=6 and ethylniflutnate=6].

[5] = target: T1, Xanthine oxidase from bovine milk (Bos taurus, UniProt P80457); assay: XO inhibition assay, cell-free, spectrophotometric monitoring of uric acid formation at 295 nm; format: biochemical; conditions: for type of inhibition / Ki: Lineweaver-Burk plot; for Ki: read-out: inhibitor constant (Ki); for inhibition of XO compared among 25 compounds and with allopurinol: each compound at 20 μM; for Vmax of XO: in the presence of different concentrations of the inhibitor; for initial rate of uric acid formation with longer pre-incubation times with XO: pre-incubated with XO for varying times, then xanthine added
T1 construct: Xanthine oxidase from bovine milk; purchased Sigma Chemical Co. (St. Louis, MO); host or cells: bovine milk
Description: Xanthine oxidase from bovine milk, xanthine, allopurinol, niflumic acid (NFA), ethyl niflumate, 2-(3-chloro-5-(trifluoromethyl)-2-pyridylthio)pyridine-3-carboxylic acid, 2-[3-(trifluoromethyl)phenoxy]nicotinic acid, clonixin, flunixin, flufenamic acid, indomethacin, naproxen, diclofenac, aspirin, ibuprofen, talniflumate, 6-phenylamino-nicotinic acid, 2-phenylamino-nicotinic acid, N-phenylanthranilic acid, mefenamic acid, tolfenamic acid, meclofenamic acid, floctafenic acid, and dimethyl sulfoxide (DMSO) were obtained from Sigma Chemical Co. (St. Louis, MO). Morniflumate was purchased from Toronto Research Chemicals, Inc. (North York, Canada).
The uric acid absorbance at 295 nm was followed and the intensity data were collected every 30 seconds for 10 minutes. The initial rate of uric acid formation was generated for the reaction and converted to XO activity as 100% without any inhibitor (negative control). The inhibitory effect of NFA on XO activity was calculated as compared with the negative control (DMSO).
The formation of uric acid during the oxidation of xanthine by XO in the absence of NFA was recorded (see FIG. 2A). Uric acid formation was monitored as the absorbance at 295 nm over a period of 0-10 minutes during the oxidation of xanthine. The corresponding data were recorded for the oxidation of xanthine by XO in the presence of 10 μM NFA over a period of 0-10 minutes (see FIG. 2B).
Enzyme kinetics analysis of NFA—The inhibition kinetics of NFA on XO was determined by using the Lineweaver-Burk plot (see FIG. 3A). […] The maximum velocity (Vmax) and Michaelis-Menten constant of XO were determined in the presence of different concentrations of NFA (see FIG. 3B).
Dose-dependent effects—The dose-dependent effects on XO inhibition by NFA, NFA impurity E (labeled as “Impurity E”), flunixin, clonixin, and flufenamic acid were studied (see FIG. 5). Varying concentrations (0-40 μM) of each compound were pre-incubated with 20 nM of XO. Allopurinol was used as a positive control and DMSO was used as a negative control.
The inhibition kinetics of NFA impurity E on XO was determined by using the Lineweaver-Burk plot (see FIG. 7A). […] The maximum velocity (Vmax) and Michaelis-Menten constant of XO was determined in the presence of different concentrations of NFA […] (see FIG. 7B).
XO (20 nM) was pre-incubated with NFA, allopurinol or a combination of NFA and allopurinol for 1 minute in a phosphate buffer ([…] pH 7.2), followed by the addition of […] xanthine to start the reaction. XO activity was analyzed by measuring the production of uric acid.

[6] = Stability of NFA during pre-incubation with XO (absorbance at 287 nm); format: physicochemical; conditions: incubated with XO for 0 to 47 hours
[7] = 150 mg/L in drinking water, 1-2 weeks
[8] = 150 mg/L in drinking water, 4-6 weeks
[9] = 150 mg/L in drinking water, 8-10 weeks

T1 sequence (P80457 whole entry): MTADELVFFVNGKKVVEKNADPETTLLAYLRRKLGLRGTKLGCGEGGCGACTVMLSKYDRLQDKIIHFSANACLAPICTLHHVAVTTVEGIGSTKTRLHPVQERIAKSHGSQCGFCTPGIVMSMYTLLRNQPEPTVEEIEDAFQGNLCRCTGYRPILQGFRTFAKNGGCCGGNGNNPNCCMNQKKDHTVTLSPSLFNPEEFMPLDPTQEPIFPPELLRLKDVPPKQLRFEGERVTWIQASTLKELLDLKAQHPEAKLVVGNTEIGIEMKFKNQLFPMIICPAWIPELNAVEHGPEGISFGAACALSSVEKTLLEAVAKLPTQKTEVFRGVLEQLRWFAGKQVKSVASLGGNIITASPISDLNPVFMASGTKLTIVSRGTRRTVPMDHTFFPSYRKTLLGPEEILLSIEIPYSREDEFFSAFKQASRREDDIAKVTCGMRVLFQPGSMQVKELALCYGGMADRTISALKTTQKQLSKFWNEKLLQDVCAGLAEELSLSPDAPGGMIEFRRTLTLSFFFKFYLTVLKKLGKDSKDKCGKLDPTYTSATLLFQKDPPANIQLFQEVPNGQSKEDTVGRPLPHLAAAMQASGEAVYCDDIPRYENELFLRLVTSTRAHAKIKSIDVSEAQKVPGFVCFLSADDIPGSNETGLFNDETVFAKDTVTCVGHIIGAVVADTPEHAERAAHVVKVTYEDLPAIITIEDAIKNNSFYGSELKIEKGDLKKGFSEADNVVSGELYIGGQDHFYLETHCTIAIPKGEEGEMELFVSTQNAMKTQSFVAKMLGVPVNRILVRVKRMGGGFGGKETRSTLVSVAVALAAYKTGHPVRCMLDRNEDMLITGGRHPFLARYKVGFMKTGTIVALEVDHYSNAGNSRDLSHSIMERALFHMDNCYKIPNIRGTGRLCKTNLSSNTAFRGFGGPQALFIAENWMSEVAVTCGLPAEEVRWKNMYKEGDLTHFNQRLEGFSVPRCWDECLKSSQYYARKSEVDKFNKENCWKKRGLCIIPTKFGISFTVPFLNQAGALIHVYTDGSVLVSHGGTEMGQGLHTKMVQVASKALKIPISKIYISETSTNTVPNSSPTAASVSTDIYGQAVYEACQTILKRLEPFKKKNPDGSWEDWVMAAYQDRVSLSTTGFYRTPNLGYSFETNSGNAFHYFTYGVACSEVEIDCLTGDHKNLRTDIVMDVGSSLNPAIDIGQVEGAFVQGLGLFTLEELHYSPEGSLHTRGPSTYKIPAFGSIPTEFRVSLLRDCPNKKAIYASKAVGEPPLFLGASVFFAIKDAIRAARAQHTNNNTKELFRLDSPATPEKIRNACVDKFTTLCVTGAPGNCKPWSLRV

Oc1ncnc2[nH]ncc12 [Allopurinol, allopurinol]
SUA (uricase −/− mice [1]; [7]): 3.34 ± 0.87 mg/dL | SUA (uricase −/− mice [1]; [8]): 3.45 ± 0.49 mg/dL | SUA (uricase −/− mice [1]; [9]): 4.28 ± 0.80 mg/dL | SUA under maintenance of allopurinol (uricase −/− mice [1]; adult uricase−/− mice, maintenance allopurinol water): 2 to 4 mg/dL | SUA (uricase −/− mice [2]): 4.33 ± 1.15 mg/dL | SUA levels versus regular chow control (uricase −/− mice [2]): significantly reduced SUA levels | SUA levels versus allantoxanamide control [3]: significantly reduced SUA levels | SUA levels versus allantoxanamide control ([4]; 3-hour time point): significantly reduced SUA levels | SUA levels versus allantoxanamide control ([4]; 23-hour time point): significantly reduced SUA levels

O=Cc1cc(O)c(O)c([N+](=O)[O-])c1 [DHNB, 3,4-dihydroxy-5-nitrobenzaldehyde]
SUA (uricase −/− mice [1]; [7]): 5.37 ± 1.06 mg/dL | SUA (uricase −/− mice [1]; [8]): 5.73 ± 0.76 mg/dL | SUA (uricase −/− mice [1]; [9]): 5.76 ± 0.81 mg/dL | SUA (uricase −/− mice [2]): 5.91 ± 1.30 mg/dL | SUA levels versus regular chow control (uricase −/− mice [2]): significantly reduced SUA levels

O=C(O)c1ccc(Nc2cccc(C(F)(F)F)c2)nc1 [NFA impurity E]
dose-dependent XO inhibition, rank ([5]; 0-40 μM pre-incubated with 20 nM XO): most potent amongst each of the compounds tested | type of inhibition [5]: mixed-type inhibition | Ki [5]: 30 nM | inhibition of XO compared among 25 compounds and with allopurinol [5]: most potent inhibitor amongst the compounds tested; also recorded: most effectively inhibit XO activity | Vmax of XO [5]: 0.044 µM/s | initial rate of uric acid formation with longer pre-incubation times with XO [5]: did not change | SUA levels versus allantoxanamide control ([4]; 3-hour time point): significantly reduced SUA levels | SUA levels versus allantoxanamide control ([4]; 23-hour time point): significant effect

O=C(O)c1cccnc1Nc1cccc(C(F)(F)F)c1 [Niflumic acid, niflumic acid]
IC50 ([5]; 20 nM XO, read-out: IC50, inhibitory effect on XO activity): 2750 nM | type of inhibition [5]: mixed-type inhibition | Ki [5]: 368 nM | relative enzymatic activity ([5]; at 20 μM): approximately 20% | XO relative activity ([5]; at lower concentrations (≤3.3 μM)): 45% | inhibition of XO compared among 25 compounds and with allopurinol ([5]; listed as NFA): inhibitory effect similar to that of allopurinol; also recorded: most effectively inhibit XO activity | Vmax of XO [5]: 0.04 µM/s | initial rate of uric acid formation with longer pre-incubation times with XO [5]: did not change | effect of pre-incubation with XO on stability [6]: no effect on the stability | SUA (uricase −/− mice [1]; [7]): 5.47 ± 1.21 mg/dL | SUA (uricase −/− mice [1]; [8]): 6.50 ± 0.64 mg/dL | SUA (uricase −/− mice [1]; [9]): 3.89 ± 0.20 mg/dL | SUA levels versus control mice (uricase −/− mice [1]; 150 mg/L in drinking water, all three time points, p<0.001): significantly reduced SUA levels | SUA (uricase −/− mice [2]): 5.17 ± 1.28 mg/dL | SUA levels versus regular chow control (uricase −/− mice [2]): significantly reduced SUA levels | SUA levels versus allantoxanamide control ([4]; 3-hour time point): significantly reduced SUA levels | SUA levels versus allantoxanamide control ([4]; 23-hour time point): significant effect

CCOC(=O)c1cccnc1Nc1cccc(C(F)(F)F)c1 [ethylniflumate, ethyl niflumate]
SUA levels versus allantoxanamide control ([4]; 3-hour time point): significantly reduced SUA levels

Cc1c(Nc2ncccc2C(=O)O)cccc1C(F)(F)F [flunixin]
inhibition of XO compared among 25 compounds and with allopurinol [5]: decreased its XO inhibitory activity

O=C(OCCN1CCOCC1)c1cccnc1Nc1cccc(C(F)(F)F)c1 [morniflumate, Morniflumate]
SUA levels versus allantoxanamide control [3]: significantly reduced SUA levels

O=C1OC(OC(=O)c2cccnc2Nc2cccc(C(F)(F)F)c2)c2ccccc21 (centres unmarked) [talniflumate]
SUA levels versus allantoxanamide control ([4]; 3-hour time point): significantly reduced SUA levels | SUA levels versus allantoxanamide control ([4]; 23-hour time point): significant effect
